Laboratory results: patent US20070049564A1 (Wyeth, priority 2005, published 2007)
Where two headings read alike, the source gives them in different places.

Key:
E. coli GC 4559 = assay: MIC, broth microdilution; conditions: Escherichia coli
S. aureus GC 6467 = assay: MIC, broth microdilution; conditions: Staphylococcus aureus
E. coli GC 2235 = assay: MIC, broth microdilution; conditions: Escherichia coli
E. faecalis GC 2265 = assay: MIC, broth microdilution; conditions: Enterococcus faecalis
E. coli GC 2233 = assay: MIC, broth microdilution; conditions: Escherichia coli
Staph. = assay: Range of MIC for Staph. strains, including MRSA; conditions: Staphylococcus aureus
E. coli GC 6465 = assay: MIC, broth microdilution; conditions: Escherichia coli
E. coli GC 2236 = assay: MIC, broth microdilution; conditions: Escherichia coli
Experimental: Antimicrobial susceptibility testing. The in vitro activities of the antibiotics are determined by the broth microdilution method as recommended by the National Committee for Clinical Laboratory Standards (NCCLS) (1). Mueller-Hinton II broth (MHBII)(BBL Cockeysville, Md.) is the medium employed in the testing procedures. Microtiter plates containing serial dilutions of each antimicrobial agent are inoculated with each organism to yield the appropriate density (10^5 CFU/ml) in a 100 μl final volume. The plates are incubated for 18-22 hours at 35° C. in ambient air. […] Standard Pharmacological Test Procedures
Presented in Tables I-XIII are representative compounds of Formula I which were evaluated against a panel of 40 selected gram-positive and gram-negative bacteria strains by pre-incubation in water, mouse serum or human serum. Representative compounds were first incubated in mouse serum for an hour prior to the in vitro testing against a panel of selected gram-positive and gram-negative bacteria strains. All compounds were also pre-incubated in water for an hour prior to testing as control. Representative compounds of Formula I were incubated in human serum prior to MIC determination.

E. faecalis GC 2242 = assay: MIC, broth microdilution; conditions: Enterococcus faecalis
E. faecalis GC 4555 = assay: MIC, broth microdilution; conditions: Enterococcus faecalis
E. coli = assay: Range of MIC for E. coli strains; conditions: Escherichia coli
P. aeruginosa GC 2214 = assay: MIC, broth microdilution; conditions: Pseudomonas aeruginosa
Experimental: Antimicrobial susceptibility testing. The in vitro activities of the antibiotics are determined by the broth microdilution method as recommended by the National Committee for Clinical Laboratory Standards (NCCLS) (1). Mueller-Hinton II broth (MHBII)(BBL Cockeysville, Md.) is the medium employed in the testing procedures. Microtiter plates containing serial dilutions of each antimicrobial agent are inoculated with each organism to yield the appropriate density (10^5 CFU/ml) in a 100 μl final volume. The plates are incubated for 18-22 hours at 35° C. in ambient air.
Representative compounds were first incubated in mouse serum for an hour prior to the in vitro testing against a panel of selected gram-positive and gram-negative bacteria strains. All compounds were also pre-incubated in water for an hour prior to testing as control.

S. aureus GC 4536 = assay: MIC, broth microdilution; conditions: Staphylococcus aureus
E. coli GC 1073 = assay: MIC, broth microdilution; conditions: Escherichia coli
S. aureus GC 6469 = assay: MIC, broth microdilution; conditions: Staphylococcus aureus
E. coli GC 4560 = assay: MIC, broth microdilution; conditions: Escherichia coli
S. agalactiae GC 4564 = assay: MIC, broth microdilution; conditions: Streptococcus agalactiae
E. coli GC 2270 = assay: MIC, broth microdilution; conditions: Escherichia coli
E. coli GC 2203 = assay: MIC, broth microdilution; conditions: Escherichia coli
E. coli GC 2271 = assay: MIC, broth microdilution; conditions: Escherichia coli

Measured: MIC

CN(C)c1cc(NC(=O)CN(C(=O)OCOC(=O)C2CCCCC2)C(C)(C)C)c(O)c2c1C[C@H]1C[C@H]3[C@H](N(C)C)C(O)=C(C(N)=O)C(=O)[C@@]3(O)C(O)=C1C2=O [Example 50, ({[(2-{[(5aR,6aS,7S,10aS)-9-(aminocarbonyl)-4,7-bis(dimethylamino)-1,8,10a,11-tetrahydroxy-10,12-dioxo-5,5a,6,6a,7,10,10a,12-octahydrotetracen-2-yl]amino}-2-oxoethyl)(tert-butyl)amino]carbonyl}oxy)methyl cyclohexanecarboxylate]
8 µg/mL: E. coli GC 2233; GC2233, read-out: MINIMAL INHIBITORY CONCENTRATION MIC, Human Serum | E. coli GC 2236; GC2236, read-out: MINIMAL INHIBITORY CONCENTRATION MIC, Human Serum | E. coli GC 1073; GC1073, read-out: MINIMAL INHIBITORY CONCENTRATION MIC, Human Serum | E. coli GC 2270; GC2270, read-out: MINIMAL INHIBITORY CONCENTRATION MIC, Human Serum | E. coli GC 2203; GC2203, read-out: MINIMAL INHIBITORY CONCENTRATION MIC, Human Serum
1 to 2 µg/mL: E. coli; 20 h, read-out: Range of MIC, E. coli (Mouse Serum)
> 64 µg/mL: E. coli GC 6465; GC6465, read-out: MINIMAL INHIBITORY CONCENTRATION MIC, Water | P. aeruginosa GC 2214; GC2214, read-out: MINIMAL INHIBITORY CONCENTRATION MIC, Human Serum | P. aeruginosa GC 2214; GC2214, read-out: MINIMAL INHIBITORY CONCENTRATION MIC, Water
4 to 16 µg/mL: E. coli; read-out: Minimum inhibitory concentration (MIC), E. coli (Human Serum)
0.25 to 2 µg/mL: Staph.; MRSA, read-out: Range of MIC, Staph (Mouse Serum) | Staph.; read-out: Minimum inhibitory concentration (MIC), Staph (Human Serum)
32 µg/mL: E. coli GC 2235; GC2235, read-out: MINIMAL INHIBITORY CONCENTRATION MIC, Water | E. coli GC 2233; GC2233, read-out: MINIMAL INHIBITORY CONCENTRATION MIC, Water | E. coli GC 2236; GC2236, read-out: MINIMAL INHIBITORY CONCENTRATION MIC, Water | P. aeruginosa GC 2214; GC2214, read-out: MINIMAL INHIBITORY CONCENTRATION MIC, Mouse Serum | E. coli GC 1073; GC1073, read-out: MINIMAL INHIBITORY CONCENTRATION MIC, Water | E. coli GC 2270; GC2270, read-out: MINIMAL INHIBITORY CONCENTRATION MIC, Water | E. coli GC 2203; GC2203, read-out: MINIMAL INHIBITORY CONCENTRATION MIC, Water | E. coli GC 2271; GC2271, read-out: MINIMAL INHIBITORY CONCENTRATION MIC, Water
0.5 µg/mL: S. aureus GC 4536; GC4536, read-out: MINIMAL INHIBITORY CONCENTRATION MIC, Water | E. coli GC 4560; GC4560, read-out: MINIMAL INHIBITORY CONCENTRATION MIC, Mouse Serum
4 µg/mL: E. coli GC 2235; GC2235, read-out: MINIMAL INHIBITORY CONCENTRATION MIC, Human Serum | E. faecalis GC 2265; GC2265, read-out: MINIMAL INHIBITORY CONCENTRATION MIC, Water | E. faecalis GC 4555; GC4555, read-out: MINIMAL INHIBITORY CONCENTRATION MIC, Water | E. coli GC 4560; GC4560, read-out: MINIMAL INHIBITORY CONCENTRATION MIC, Water | E. coli GC 2271; GC2271, read-out: MINIMAL INHIBITORY CONCENTRATION MIC, Human Serum
32 to 64 µg/mL: E. coli; read-out: Minimum inhibitory concentration (MIC), E. coli (water) | E. coli; read-out: Range of MIC, E. coli (Water)
1 µg/mL: E. coli GC 2235; GC2235, read-out: MINIMAL INHIBITORY CONCENTRATION MIC, Mouse Serum | E. faecalis GC 2265; GC2265, read-out: MINIMAL INHIBITORY CONCENTRATION MIC, Mouse Serum | E. coli GC 2233; GC2233, read-out: MINIMAL INHIBITORY CONCENTRATION MIC, Mouse Serum | E. coli GC 2236; GC2236, read-out: MINIMAL INHIBITORY CONCENTRATION MIC, Mouse Serum | E. faecalis GC 2242; GC2242, read-out: MINIMAL INHIBITORY CONCENTRATION MIC, Human Serum | E. faecalis GC 2242; GC2242, read-out: MINIMAL INHIBITORY CONCENTRATION MIC, Mouse Serum | E. faecalis GC 4555; GC4555, read-out: MINIMAL INHIBITORY CONCENTRATION MIC, Mouse Serum | S. aureus GC 6469; GC6469, read-out: MINIMAL INHIBITORY CONCENTRATION MIC, Human Serum | S. aureus GC 6469; GC6469, read-out: MINIMAL INHIBITORY CONCENTRATION MIC, Mouse Serum | E. coli GC 2270; GC2270, read-out: MINIMAL INHIBITORY CONCENTRATION MIC, Mouse Serum | E. coli GC 2203; GC2203, read-out: MINIMAL INHIBITORY CONCENTRATION MIC, Mouse Serum | E. coli GC 2271; GC2271, read-out: MINIMAL INHIBITORY CONCENTRATION MIC, Mouse Serum
0.25 to 4 µg/mL: Staph.; MRSA, read-out: Range of MIC, Staph (Water) | Staph.; read-out: Minimum inhibitory concentration (MIC), Staph (Water)
2 µg/mL: E. coli GC 4559; GC4559, read-out: MINIMAL INHIBITORY CONCENTRATION MIC, Mouse Serum | S. aureus GC 6467; GC6467, read-out: MINIMAL INHIBITORY CONCENTRATION MIC, Water | E. faecalis GC 2265; GC2265, read-out: MINIMAL INHIBITORY CONCENTRATION MIC, Human Serum | E. coli GC 6465; GC6465, read-out: MINIMAL INHIBITORY CONCENTRATION MIC, Mouse Serum | E. faecalis GC 2242; GC2242, read-out: MINIMAL INHIBITORY CONCENTRATION MIC, Water | E. faecalis GC 4555; GC4555, read-out: MINIMAL INHIBITORY CONCENTRATION MIC, Human Serum | E. coli GC 1073; GC1073, read-out: MINIMAL INHIBITORY CONCENTRATION MIC, Mouse Serum | S. aureus GC 6469; GC6469, read-out: MINIMAL INHIBITORY CONCENTRATION MIC, Water | E. coli GC 4560; GC4560, read-out: MINIMAL INHIBITORY CONCENTRATION MIC, Human Serum
64 µg/mL: E. coli GC 4559; GC4559, read-out: MINIMAL INHIBITORY CONCENTRATION MIC, Water
0.25 µg/mL: S. aureus GC 6467; GC6467, read-out: MINIMAL INHIBITORY CONCENTRATION MIC, Human Serum | S. aureus GC 6467; GC6467, read-out: MINIMAL INHIBITORY CONCENTRATION MIC, Mouse Serum | S. aureus GC 4536; GC4536, read-out: MINIMAL INHIBITORY CONCENTRATION MIC, Human Serum | S. aureus GC 4536; GC4536, read-out: MINIMAL INHIBITORY CONCENTRATION MIC, Mouse Serum | S. agalactiae GC 4564; GC4564, read-out: MINIMAL INHIBITORY CONCENTRATION MIC, Human Serum | S. agalactiae GC 4564; GC4564, read-out: MINIMAL INHIBITORY CONCENTRATION MIC, Mouse Serum | S. agalactiae GC 4564; GC4564, read-out: MINIMAL INHIBITORY CONCENTRATION MIC, Water
16 µg/mL: E. coli GC 4559; GC4559, read-out: MINIMAL INHIBITORY CONCENTRATION MIC, Human Serum | E. coli GC 6465; GC6465, read-out: MINIMAL INHIBITORY CONCENTRATION MIC, Human Serum
